Target: Transient receptor potential cation channel subfamily A member 1 (Homo sapiens, UniProt O75762)
Assay: FLIPR Assay: The IC50 (effective concentration) of compounds on the human and rat TRPA1 channels were determined using a FLIPR Tetra instrument. CHO cells expressing TRPA1 were plated into 384-well plates, incubated overnight at 37° C., and loaded with BD calcium indicator dye for 1 hr at 37° C. followed by 15 minutes at room temperature. The assay buffer was Hank's Balanced Salt Solution (HBSS) containing 20 mM HEPES (pH readjusted to 7.4) along with 0.02% BSA.Following dye load and plate cool down, compounds were added to the cells using FLIPR Tetra. Plates were then incubated with compounds for 20 minutes at room temperature prior to adding agonist. […] Fixing the Hill coefficient will generally reduce variability of the IC50 determination. The IC50 results were individually examined to make sure the MIN and MAX points were set correctly prior to validation of the results.

Transient receptor potential cation channel subfamily A member 1, sequence (O75762 whole entry): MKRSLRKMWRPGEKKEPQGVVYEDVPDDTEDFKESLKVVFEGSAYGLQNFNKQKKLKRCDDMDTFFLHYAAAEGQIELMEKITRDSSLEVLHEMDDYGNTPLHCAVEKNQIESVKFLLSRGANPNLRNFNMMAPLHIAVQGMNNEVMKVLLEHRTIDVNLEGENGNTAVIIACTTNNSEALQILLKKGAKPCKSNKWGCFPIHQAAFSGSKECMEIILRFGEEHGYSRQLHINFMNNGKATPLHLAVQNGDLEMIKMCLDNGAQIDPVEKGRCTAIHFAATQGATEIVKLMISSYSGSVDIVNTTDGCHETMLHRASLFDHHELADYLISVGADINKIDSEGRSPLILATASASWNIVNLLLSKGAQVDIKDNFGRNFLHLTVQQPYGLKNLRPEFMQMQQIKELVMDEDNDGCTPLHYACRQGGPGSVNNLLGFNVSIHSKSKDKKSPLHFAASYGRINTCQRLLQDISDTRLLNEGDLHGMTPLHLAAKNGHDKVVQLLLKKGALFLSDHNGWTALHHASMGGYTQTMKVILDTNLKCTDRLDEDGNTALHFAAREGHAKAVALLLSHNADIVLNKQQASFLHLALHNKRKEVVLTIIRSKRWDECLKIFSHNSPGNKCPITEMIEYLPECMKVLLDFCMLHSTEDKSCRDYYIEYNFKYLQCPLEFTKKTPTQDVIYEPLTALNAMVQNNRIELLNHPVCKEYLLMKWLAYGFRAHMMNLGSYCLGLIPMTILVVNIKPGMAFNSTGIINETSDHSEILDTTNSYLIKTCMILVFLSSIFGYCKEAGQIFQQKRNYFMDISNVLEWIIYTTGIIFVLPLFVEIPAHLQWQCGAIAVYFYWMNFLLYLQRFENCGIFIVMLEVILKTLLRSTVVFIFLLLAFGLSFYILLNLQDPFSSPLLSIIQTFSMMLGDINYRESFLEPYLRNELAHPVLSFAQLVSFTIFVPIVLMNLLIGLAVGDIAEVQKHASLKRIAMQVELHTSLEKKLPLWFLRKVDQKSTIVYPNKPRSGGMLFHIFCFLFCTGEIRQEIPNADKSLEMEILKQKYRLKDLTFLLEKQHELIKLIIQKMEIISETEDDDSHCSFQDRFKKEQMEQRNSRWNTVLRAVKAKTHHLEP

IC50: 100 nM
SMILES: Cn1nc(C#N)c2ncn(Cc3nn(CCc4ccc(Cl)cc4)c(=O)o3)c(=O)c21
